# Measurements taken from ChEMBL document CHEMBL5149976, “β-Carbolines as potential anticancer agents” (Eur J Med Chem, 2021).
# What was measured:
# [1] = biological target: DNA topoisomerase 1 (Homo sapiens) (UniProt P11387); assay: Inhibition of topoisomerase 1 (unknown origin) assessed as relaxation of pBR322 plasmid DNA and incubated for 10 mins
# LoVo = assay: Cytotoxicity against human LoVo cells assessed as cell growth inhibition; format: functional, cell-based
# Calf thymus DNA [2] = assay: Binding affinity to calf thymus DNA assessed as binding constant by spectrophotometric analysis; format: nucleic-acid assay; conditions: Bos taurus
# Calf thymus DNA [3] = assay: Stabilization of calf thymus DNA assessed as change in melting temperature; format: nucleic-acid assay; conditions: Bos taurus
# [4] = In vivo antitumor activity against mouse Lewis lung carcinoma cells xenografted in mouse model assessed as inhibition of cell growth relative to control; format: functional
# P388 [5] = assay: Cytotoxicity against mouse P388 cells; format: functional, cell-based; conditions: read-out: ED50 (the source's name)
# MOLT-4F = assay: Cytotoxicity against human MOLT-4F cells; format: functional; conditions: read-out: ED50 (the source's name)
# L1210 [6] = assay: Cytotoxicity against mouse L1210 cells; format: functional; conditions: read-out: ED50 (the source's name)
# MT4 = assay: Cytotoxicity against human MT4 cells; format: functional; conditions: read-out: ED50 (the source's name)
# [7] = tested on: Panel NCI-60 (60 carcinoma cell lines); assay: Cytotoxicity against human Panel NCI-60 (60 carcinoma cell lines) assessed as cell growth inhibition; format: functional, cell-based
# MCF7 = assay: Cytotoxicity against human MCF7 cells assessed as cell growth inhibition; format: functional, cell-based
# HeLa [8] = assay: Cytotoxicity against human HeLa cells assessed as cell growth inhibition; format: functional, cell-based
# [9] = Cytotoxicity against mouse C19 cells assessed as cell growth inhibition by MTT assay; format: functional, cell-based
# CCRF S-180 = assay: Antitumor activity against mouse CCRF S-180 cells allografted in ICR mouse assessed as tumor growth inhibition at 0.1 micromol/kg, iv administered for 7 days relative to control; format: functional; conditions: dose 0.1 µmol/kg, time 7 day
# Calu-1 = assay: Anti-ferroptotic activity against human Calu-1 cells assessed as cell growth inhibition; format: functional, cell-based
# [10] = Anti-ferroptotic activity against human BJeLR cells assessed as cell growth inhibition; format: functional, cell-based
# A549 [11] = assay: Cytotoxicity against human A549 cells assessed as cell growth inhibition by MTT assay; format: functional, cell-based
# B16 = assay: Cytotoxicity against mouse B16 cells assessed as cell growth inhibition by MTT assay; format: functional, cell-based
# HeLa [12] = assay: Cytotoxicity against human HeLa cells assessed as cell growth inhibition and measured after 24 hrs by MTT assay; format: functional, cell-based
# HepG2 = assay: Cytotoxicity against human HepG2 cells assessed as cell growth inhibition and measured after 24 hrs by MTT assay; format: functional, cell-based; conditions: HepG2, 24 h
# HT-29 [13] = assay: Cytotoxicity against human HT-29 cells assessed as inhibition of cell growth measured after 48 hrs by MTT assay; format: functional, cell-based; conditions: HT-29, 48 h
# HGC-27 = assay: Cytotoxicity against human HGC-27 cells assessed as inhibition of cell growth measured after 48 hrs by MTT assay; format: functional, cell-based; conditions: HGC-27, 48 h
# [14] = Cytotoxicity against human KB-16 cells assessed as cell growth inhibition and measured after 5 hrs by MTT assay; format: functional, cell-based; conditions: KB16, 5 h
# A549 [15] = assay: Cytotoxicity against human A549 cells assessed as cell growth inhibition and measured after 5 hrs by MTT assay; format: functional, cell-based; conditions: A549, 5 h
# P388 [16] = assay: Cytotoxicity against mouse P388 cells assessed as cell growth inhibition and measured after 5 hrs by MTT assay; format: functional, cell-based; conditions: P388, 5 h
# HT-29 [17] = assay: Cytotoxicity against human HT-29 cells assessed as cell growth inhibition and measured after 5 hrs by MTT assay; format: functional, cell-based; conditions: HT-29, 5 h
# L1210 [18] = assay: Cytotoxicity against mouse L1210 cells assessed as cell growth inhibition; format: functional, cell-based
# L5178Y = assay: Cytotoxicity against mouse L5178Y cells assessed as cell growth inhibition; format: functional, cell-based
# DU-145 = assay: Cytotoxicity against human DU-145 cells assessed as cell growth inhibition by MTT assay; format: functional, cell-based; conditions: pooled result: one value given for 5 cell lines, strains, targets or settings
# KB = assay: Cytotoxicity against human KB cells; format: functional, cell-based
# PC-3 = assay: Cytotoxicity against human PC-3 cells assessed as cell growth inhibition and measured after 48 hrs; format: functional, cell-based; conditions: PC-3, 48 h
# U-251 = assay: Cytotoxicity against human U-251 cells assessed as cell growth inhibition and measured after 48 hrs; format: functional, cell-based; conditions: U-251, 48 h
# OVCAR-3 [19] = assay: Cytotoxicity against human OVCAR-3 cells assessed as cell growth inhibition and measured after 48 hrs; format: functional, cell-based; conditions: OVCAR-3, 48 h
# A-375 = assay: Cytotoxicity against human A-375 cells assessed as cell growth inhibition; format: functional, cell-based
# M14 = assay: Anticancer activity against human M14 cells; format: functional
# HOP-92 = assay: Anticancer activity against human HOP-92 cells; format: functional
# UACC-62 = assay: Anticancer activity against human UACC-62 cells; format: functional
# HT-29 [20] = assay: Anticancer activity against human HT-29 cells; format: functional
# MDA-MB-231 = assay: Anticancer activity against human MDA-MB-231 cells; format: functional
# OVCAR-3 [21] = assay: Anticancer activity against human OVCAR-3 cells; format: functional
# RPMI-8226 = assay: Cytotoxicity against human RPMI-8226 cells assessed as cell growth inhibition; format: functional, cell-based
# CCRF-CEM = assay: Cytotoxicity against human CCRF-CEM cells assessed as cell growth inhibition; format: functional, cell-based
# NCI-H1299 = assay: Cytotoxicity against human NCI-H1299 cells assessed as cell growth inhibition; format: functional, cell-based
# DNA topoisomerase 1 (Homo sapiens), sequence (P11387 whole entry): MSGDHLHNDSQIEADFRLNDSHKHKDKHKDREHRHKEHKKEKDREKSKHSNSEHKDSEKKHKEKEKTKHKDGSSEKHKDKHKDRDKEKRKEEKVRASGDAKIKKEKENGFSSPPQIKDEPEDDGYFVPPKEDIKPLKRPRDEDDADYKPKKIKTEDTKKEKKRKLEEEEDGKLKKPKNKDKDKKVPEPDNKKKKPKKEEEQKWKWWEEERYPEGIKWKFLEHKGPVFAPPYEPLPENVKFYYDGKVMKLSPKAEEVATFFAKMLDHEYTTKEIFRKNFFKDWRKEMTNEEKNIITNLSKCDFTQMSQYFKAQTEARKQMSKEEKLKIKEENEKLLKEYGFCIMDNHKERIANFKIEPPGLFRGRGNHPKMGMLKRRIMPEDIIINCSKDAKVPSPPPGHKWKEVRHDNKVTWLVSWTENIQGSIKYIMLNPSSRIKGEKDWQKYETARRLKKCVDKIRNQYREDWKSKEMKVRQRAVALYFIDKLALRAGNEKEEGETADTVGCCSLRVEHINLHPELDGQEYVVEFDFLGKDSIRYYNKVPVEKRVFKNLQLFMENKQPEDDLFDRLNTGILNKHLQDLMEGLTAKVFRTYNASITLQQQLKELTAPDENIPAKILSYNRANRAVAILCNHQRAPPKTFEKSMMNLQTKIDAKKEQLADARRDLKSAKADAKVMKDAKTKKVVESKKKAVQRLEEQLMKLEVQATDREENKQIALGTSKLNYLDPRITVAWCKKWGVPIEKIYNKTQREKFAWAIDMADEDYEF
compound,measurement,setting,value
c1ccc2c(c1)[nH]c1cnccc12,ED50,[1],34.4 µg/mL
CCCCc1nc(C(=O)O)cc2c1[nH]c1ccccc12,IC50,LoVo,11 µM
NCCCCNC(=O)c1cc2c(cn1)[nH]c1ccccc12,K,Calf thymus DNA [2],4.5 10^4/M
same,ΔTm,Calf thymus DNA [3],5.7 °C
CCCCn1c2ccccc2c2ccnc(C(=O)OCCCCCCOC(=O)c3nccc4c5ccccc5n(CCCC)c34)c21,inhibition (INH),[4],64.2%
NC1CSCON2CCC3c4ccccc4NC3C12 (stereo not given),EC50,P388 [5],0.005 µM
same,EC50,MOLT-4F,0.005 µM
same,EC50,L1210 [6],0.005 µM
same,EC50,MT4,0.005 µM
COc1ccc2nc(-c3cc4c([nH]c5ccccc54)c(-c4ccc(F)c(F)c4)n3)[nH]c2c1,IC50,[7],1.9 µM
COc1ccccc1-c1c(-c2ccccc2)ncc2[nH]c3ccccc3c12,IC50,MCF7,35.3 µM
same,IC50,HeLa [8],35.6 µM
c1ccc2c(-c3nccc4c3[nH]c3ccccc34)c[nH]c2c1,IC50,[9],15.6 µM
COC(=O)[C@@H]1Cc2c([nH]c3ccccc23)[C@@H](c2ccccc2)N1,IC50,[7],0.36 µM
COc1cc(-c2nc(C(=O)N[C@@H](Cc3c[nH]c4ccccc34)C(=O)N[C@@H](Cc3c[nH]c4ccccc34)C(=O)N[C@@H](CO)C(=O)OCc3ccccc3)cc3c2[nH]c2ccccc23)ccc1O,TGI,CCRF S-180,62.9%
COC(=O)c1ccc([C@H]2c3[nH]c4ccccc4c3C[C@H](C(=O)OC)N2C(=O)CCl)cc1,IC50,Calu-1,0.02 µM
same,IC50,[10],2 µM
O=C(/C=C/C1Cc2c([nH]c3ccccc23)C(c2ccc(F)cc2)N1)c1ccc(F)cc1 (stereo not given),IC50,A549 [11],5.65 µM
same,IC50,B16,7.34 µM
COC(=O)c1cc2c([nH]c3ccccc32)c(-c2ccc(OCc3cn(-c4cccc(Cl)c4Cl)nn3)cc2)n1,IC50,HeLa [12],46 µM
same,IC50,HepG2,32 µM
COc1cc(-c2nc(Cn3cc(CN4C(=O)c5ccc(C)cc5C4=O)nn3)cc3c2[nH]c2ccccc23)cc(OC)c1OC,IC50,HT-29 [13],3.67 µM
same,IC50,HGC-27,< 10 µM
CC[C@H](C)[C@H](NC(=O)[C@H](Cc1c[nH]c2ccccc12)NC(=O)[C@H](Cc1c[nH]c2ccccc12)NC(=O)c1cc2c([nH]c3ccccc32)c(-c2ccc(O)c(OC)c2)n1)C(=O)OCc1ccccc1,TGI,CCRF S-180,63.4%
CCN(CC)c1ccc(C2NCCc3c2[nH]c2ccccc32)cc1 (stereo not given),IC50,[14],0.07 µg/mL
same,IC50,A549 [15],0.07 µg/mL
same,IC50,P388 [16],0.07 µg/mL
same,IC50,HT-29 [17],0.07 µg/mL
c1ccc(-c2nc(-c3nc4ccccc4[nH]3)cc3c2[nH]c2ccccc23)cc1,IC50,[7],0.36 µM
Cc1ccc(C[C@H](N)[C@@H]2NCCc3c2[nH]c2ccc(Br)cc32)cc1,IC50,"L1210 [18]; Mus musculus, L1210",3.1 µM
same,IC50,L1210 [18]; l1210,3.4 µM
same,IC50,L5178Y,3.1 µM
Cc1nccc2c1[nH]c1ccccc12,ED50,[1],23.8 µg/mL
COc1cccc2c1C(=O)c1c(O)c3c(c(O)c1C2=O)C[C@@](O)(C(=O)CO)C[C@@H]3O[C@H]1C[C@H](N)[C@H](O)[C@H](C)O1.Cl [DOXORUBICIN HYDROCHLORIDE],TGI,CCRF S-180,61.1%
O=C(/C=C/c1cc2c([nH]c3ccccc32)c(-c2ccc(F)cc2)n1)c1ccco1,IC50,DU-145,1.86 µM
same,IC50,A549 [11],1.86 µM
COc1ccc(-c2c(-c3ccccc3)ncc3[nH]c4ccccc4c23)cc1,IC50,MCF7,20.8 µM
same,IC50,HeLa [8],33.6 µM
Fc1ccc(-c2nc(-c3nc4ccc(Cl)cc4[nH]3)cc3c2[nH]c2ccccc23)cc1,IC50,[7],1.9 µM
"O[C@]12C=C(C3=NCCc4c3[nH]c3ccccc43)[C@@H]3CCN(CCCC/C=C\CC1)C[C@@]31C[C@@H]3/C=C\CCCCN3[C@H]12 [3,4-DIHYDROMANZAMINE A]",IC50,KB,0.61 µM
same,IC50,"L1210 [18]; Mus musculus, L1210",4.8 µM
CCn1c2ccccc2c2cc(C3NCCc4c3[nH]c3ccccc43)ccc21 (stereo not given),IC50,[14],< 0.001 µg/mL
same,IC50,A549 [15],< 0.001 µg/mL
same,IC50,P388 [16],< 0.001 µg/mL
same,IC50,HT-29 [17],< 0.001 µg/mL
O=Cc1cc2c([nH]c3ccccc32)c(-c2ccccc2)n1,IC50,[7],0.36 µM
COc1ccc(-c2nc(C3=N/C(=C\c4ccccc4)C(=O)O3)cc3c2[nH]c2ccccc23)cc1,IC50,PC-3,1.5 µM
same,IC50,U-251,0.48 µM
same,IC50,OVCAR-3 [19],1.07 µM
Oc1ccc2[nH]c3c(C4=C[C@@]5(O)CC/C=C\CCCCN6CC[C@@H]4[C@]4(C[C@@H]7/C=C\CCCCN7[C@H]45)C6)nccc3c2c1 [MANZAMINE Y],IC50,KB,2.5 µM
same,IC50,"L1210 [18]; Mus musculus, L1210",1.5 µM
c1ccc2c(c1)[nH]c1c(CNCCOCCOCCNCc3nccc4c3[nH]c3ccccc34)nccc12,IC50,A-375,2 µM
Cn1c2cnccc2c2c(Br)c(O)ccc21,IC50,"L1210 [18]; Mus musculus, L1210",0.42 µM
same,IC50,L1210 [18]; l1210,0.36 µM
same,IC50,L5178Y,0.42 µM
COc1ccc2c(c1)C1CCN3OCSCC(N)C3C1N2 (stereo not given),EC50,P388 [5],< 0.005 µM
same,EC50,MOLT-4F,< 0.005 µM
same,EC50,L1210 [6],< 0.005 µM
same,EC50,MT4,< 0.005 µM
CC(=O)N1N=C(c2ccco2)CC1c1cc2c([nH]c3ccccc32)c(-c2ccc(F)cc2)n1 (stereo not given),IC50,DU-145,1.94 µM
same,IC50,A549 [11],1.94 µM
CCN(CC)CCCNc1nccc2c1[nH]c1ccccc12,GI50,M14,2 µM
same,GI50,HOP-92,0.38 µM
same,GI50,UACC-62,2.3 µM
same,GI50,HT-29 [20],2.7 µM
same,GI50,MDA-MB-231,5.2 µM
same,GI50,OVCAR-3 [21],1.6 µM
COc1ccc(-c2nc(-c3nc4ccc(F)cc4[nH]3)cc3c2[nH]c2ccccc23)cc1,IC50,[7],1.9 µM
COc1ccc(-c2nc(-c3nc4ccc(OC)cc4[nH]3)cc3c2[nH]c2ccccc23)cc1,IC50,RPMI-8226,0.36 µM
same,IC50,CCRF-CEM,0.88 µM
same,IC50,[7],1.9 µM
CNC(CSC)c1nccc2c1[nH]c1ccc(O)c(Br)c12 (stereo not given),IC50,"L1210 [18]; Mus musculus, L1210",1.8 µM
same,IC50,L1210 [18]; l1210,2.4 µM
same,IC50,L5178Y,1.8 µM
c1ccc2c(c1)[nH]c1c(CNCCOCCNCc3nccc4c3[nH]c3ccccc34)nccc12,IC50,NCI-H1299,1.6 µM
